Results reported in patent US20090137662A1, “SYNERGY OF DOPAMINE D2 AND ADENOSINE A2 RECEPTORS ACTIVATES PKA SIGNALING VIA BETA/GAMMA DIMERS” (The Regents of the University of California, priority 2002, published 2009).
Counter-ions that a name gives are not always drawn. Like-named read-outs stand apart in the source and are kept apart here.

Legend:
ε-PKC [1] = assay: Translocation of ε-PKC in NG108-15 and CHO cells expressing the applicable receptor; format: cell-based
Description: (§1) To determine whether addictive drugs other than ethanol would cause translocation of some proteins, we examine the effects of various receptor agonists and antagonists on ε-PKC δ-PKC or PKA Cα translocation in NG108-15 and CHO cells expressing the applicable receptor. […] Adenosine is also implicated in some behavioral effects of ethanol.
(§2) The mechanisms underlying ethanol- and dopamine-mediated translocation of ε-PKC and δ-PKC were studied by altering the activity of various molecules that might be in the pathways leading to translocation.

PKA Cα [2] = format: cell-based; conditions: for translocation of PKA-Cα after co-incubation with NPA: 10 minute co-incubation with 10^−10M NPA, 10^−11M DADLE or 2×10^−10M methanindamide
Description: as §1

[3] = system: CRE-regulated luciferase expression; assay: CRE-luciferase reporter in NG108-15 cells; format: cell-based
Protocol: Luciferase is used as a reporter gene in a transient expression system to identify substances that alter the effects of ethanol on CRE-regulated gene expression. Cells are cultured as described in Dohrman et al., Proc Natl Acad Sci USA (1996) 93:10217-10221, and are transfected using Effectene (Qiagene) as described by the manufacturers. Twenty-four hours after transfection the cells are treated with 200 mM ethanol for 30 min. to 36 hr. Luciferase activity is measured using Luciferase Assay System (Promega) and normalized to β-galactosidase activity.
(§3) NG108-15 cells were co-transfected with a fusion construct containing the cAMP response element (CRE) fused to luciferase as a reporter gene (Stratagene).
Since the ERK/MAPK pathway may regulate CREB phosphorylation and CRE-mediated gene expression, NG108-15 cells having the luciferase construct were co-incubated with 200 mM ethanol and a MEK inhibitor (PD98059 (2 nM, Calbiochem, San Diego, Calif.) or U0126 (1 μM, Calbiochem, San Diego, Calif.)) or a dominant negative MEK construct (DN-MEK, Dr. R. Seger) in which Lys-97 was replaced by alanine.
as §3

ε-PKC [4] = format: cell-based
Protocol: NG 108-15 or CHO cells were pre-incubated in the presence or absence of the indicated inhibitor for 30 min. (except for GF which was pre-incubated for 1 hour), then further incubated in the absence or presence of 200 mM ethanol for 30 min.

[5] = system: PKA subunits (RIα, RIIα, RIβ, Cα, Cβ, Cγ); assay: Immunocytochemical localization of PKA subunits in neutrophils; format: cell-based, human
Description: Methods 5:249-252 (1974). […] This step removed contaminating platelets from the lymphocyte fraction. […] Images were further analyzed using NIH Image.

δ-PKC [6] = assay: Translocation of δ-PKC in NG108-15 and CHO cells expressing the applicable receptor; format: cell-based
Description: as §1, §2

δ-PKC [7] = format: cell-based; conditions: naive NG108-15 cells; 100 nM PMA, 10 min.
Protocol: (§4) Naive NG108-15 cells were, therefore, incubated in for ten (10) min. in 100 nM PMA, to then determine localization of δ-PKC and ε-PKC.

ε-PKC [8] = format: cell-based; conditions: naive NG108-15 cells; 100 nM PMA, 10 min.
Protocol: as §4

PKA Cα [9] = assay: PKA Cα translocation in primary cultures of hippocampal neurons; conditions: for effect of agent alone on PKA Cα localization: data not shown
[10] = system: CRE-mediated gene expression; assay: CRE-luciferase reporter assay in NG108-15/D2 cells; conditions: NG108-15/D2 cells; spiperone, Rp-cAMPS or PTX alone
Protocol: Cells were transiently transfected with a CRE-luciferase reporter construct to measure gene expression via endogenous CRE-binding protein (CREB).
NG108-15/D2 cells were plated at 1×10^6 cells/100 mm plate, grown in defined medium for 3 days, and then transfected with 10 μg of CRE-luciferase construct using the LipofectAMINE reagent (GIBCOL) as recommended by the manufacturer. Cells were cultured for 24 h post transfection before being seeded into 12-well plates. […] Cells were then washed with PBS and cultured for a total of 5 h. Cell extracts were prepared and luciferase activity measured with a luciferase assay system (Promega, Madison, Wis.), using a Rosys Anthos Lucy2 microplate luminometer (Anthos Labtec Instruments, Austria). Results are expressed as percent increase over control. Data represent three or more separate experiments from triplet wells. Luciferase activities were normalized for transfection efficiency determined in cells transfected in parallel with pCMVβgalactosidase. β-galactosidase activity was measured using a kit from Strategene (La Jolla, Calif.).

[11] = system: CREB (GAL4-CREB fusion, luciferase reporter); assay: GAL4-CREB / GAL4-luciferase reporter in NG108-15 cells; format: cell-based; conditions: 20 μM Rp-cAMPS 2 h, 5 μM KN-62 or 50 nM GF 30 min pretreatment, then ethanol 14 hours
Protocol: Cells are cultured as described in Dohrman et al., Proc Natl Acad Sci USA (1996) 93:10217-10221, and are transfected using Effectene (Qiagene) as described by the manufacturers. […] Luciferase activity is measured using Luciferase Assay System (Promega) and normalized to β-galactosidase activity.
NG108-15 cells are co-transfected with a GAL4-CREB fusion construct and with a second construct containing the DNA binding site of GAL4 fused to luciferase as a reporter gene. […] The ethanol-induced increase in luciferase activity induced was inhibited by Rp-cAMPS but not by the CaMK and PKC inhibitors KN-62 and GF, respectively (FIGS. 15 and 16B).

[12] = NG108-15 cells expressing the applicable receptor, 200 mM Ethanol, 50 nM NPA, 1 μM D-ala-D-leu-enkephalin, 2 μM R(+) methanindamide, 20 μM Carbachol, 10^−5 M UK14304, 20 nM CCPA, 100 nM CGS-21680 HCl, None: Perinucleus
[13] = CHO cells expressing the dopamine D2 receptor
[14] = NG108-15 cells expressing the dopamine D2 receptor
[15] = PKA agonist Sp-cAMPS, or forskolin or PGE1 to increase cAMP levels
[16] = primary hippocampal neurons, 50 nM NPA, spiperone 10 μM, DPCPX 100 nM, DMPX 10 μM 30 min, Rp-cAMPS 20 μM 1.5 hours, PTX 50 ng/ml or Ad5QEHA overnight
[17] = NG108-15 cells, H-89 10 μM, PD98059 2 nM, U0126 1 μM, DN-RIα, DN-MEK, CREB-M1 constructs co-transfected
[18] = 10 μM spiperone or 10 μM BW 1434 + 200 mM ethanol

## C[N+](C)(C)CCOC(N)=O [Carbachol]
ε-PKC [1]; [12]
  Predominant Localization of ε-PKC (agent alone): Perinucleus

## CC(C)C[C@@H](NC(=O)[C@H](Cc1ccccc1)NC(=O)CNC(=O)[C@@H](C)NC(=O)[C@@H](N)Cc1ccc(O)cc1)C(=O)O [DADLE, enkephalin (D-ala2,D-leu5)]
ε-PKC [1]
  Predominant Localization of ε-PKC (agent alone): Cytoplasm
PKA Cα [2]
  translocation of PKA-Cα after co-incubation with ethanol: Synergistic translocation
  translocation of PKA-Cα after co-incubation with NPA: Synergistic translocation
PKA Cα [2]; 10 minute coincubation of 10^−11M DADLE and 2×10^−10M methanindamide
  translocation of PKA-Cα after co-incubation of δ-opioid and cannabinoid: did not result in synergistic translocation
[3]; NG108-15 cells, 10 nM DADLE, four hours
  increase in luciferase expression: 40%

## CCCCCCCCCCCCCCCCCCOCC(COP(=O)([O-])OCC[N+](C)(C)C)OC (centres unmarked) [Et-18-OCH3]
ε-PKC [4]
  Predominant ε-PKC Localization (ethanol + inhibitor): Perinucleus
ε-PKC [1]; [13]
  inhibition of ethanol-induced translocation of ε-PKC: 87%
ε-PKC [1]; [14]
  inhibition of ethanol-induced translocation of ε-PKC: 96%

## C=C[C@@]1(C)CC(=O)[C@]2(O)[C@@]3(C)[C@@H](O)CCC(C)(C)[C@@H]3[C@H](O)[C@H](OC(C)=O)[C@@]2(C)O1 [forskolin]
[5]; neutrophils from non-alcoholics, 200 mM ethanol or 100 nM forskolin
  effect on localization of the catalytic subunits of PKA (Cα, Cβ, Cγ): no effect
[5]; neutrophils, ethanol or forskolin
  effect on the localization of RIIα: no effect

## Cl.c1ccc([C@@H]2CCC[C@@H]2NC2=NCCCCCCCCCCC2)cc1 [MDL 12, 330A Hydrochloride]
ε-PKC [4]
  Predominant ε-PKC Localization (ethanol + inhibitor): Perinucleus

## N#CC(=C(/N)Sc1ccccc1N)/C(C#N)=C(\N)Sc1ccccc1N [U0126]
[3]
  effect on the increase in luciferase expression after 14 hours of exposure to 200 mM ethanol: eliminated the increase in luciferase activity

## Nc1ncnc2c1ncn2[C@@H]1O[C@@H]2COP(O)(=S)O[C@H]2[C@H]1O (some centres unmarked) [Sp-cAMPS]
ε-PKC [1]; [15]
  translocation of ε PKC on activation of PKA: translocate to the cytoplasm
δ-PKC [6]; [15]
  translocation of δ PKC on activation of PKA: did not induce translocation

## CCCCC/C=C\C/C=C\C/C=C\C/C=C\CCCC(=O)N[C@H](C)CO [R(+) methanindamide]
ε-PKC [1]
  Predominant Localization of ε-PKC (agent alone): Cytoplasm
PKA Cα [2]
  translocation of PKA-Cα after co-incubation with ethanol: Synergistic translocation
  translocation of PKA-Cα after co-incubation with NPA: Synergistic translocation

## COc1ccc2c(c1)CC[C@@H]1[C@@H]2CC[C@]2(C)[C@@H](NCCCCCCN3C(=O)C=CC3=O)CC[C@@H]12 [U 73122]
ε-PKC [4]
  Predominant ε-PKC Localization (ethanol + inhibitor): Perinucleus
ε-PKC [1]; [13]
  inhibition of ethanol-induced translocation of ε-PKC: 87%
ε-PKC [1]; [14]
  inhibition of ethanol-induced translocation of ε-PKC: 84%

## CCCCCCCCCCCCCC(=O)O[C@@H]1[C@@H](C)[C@@]2(O)[C@@H](C=C(CO)C[C@]3(O)C(=O)C(C)=C[C@@H]23)[C@@H]2C(C)(C)[C@]12OC(C)=O [PMA, phorbol myristate acetate]
δ-PKC [7]
  localization of δ-PKC on activation by PMA: mainly translocated to the perinucleus
ε-PKC [8]
  localization of ε-PKC on activation by PMA: nuclear and perinuclear localization

## Brc1c(NC2=NCCN2)ccc2nccnc12 [UK14304]
ε-PKC [1]; [12]
  Predominant Localization of ε-PKC (agent alone): Perinucleus

## Nc1ncnc2c1ncn2[C@@H]1O[C@@H]2CO[P@@](O)(=S)O[C@H]2[C@H]1O [Rp-cAMPS]
ε-PKC [4]
  Predominant ε-PKC Localization (ethanol + inhibitor): Perinucleus
PKA Cα [9]; [16]
  effect on NPA-induced PKA Cα translocation: prevent
PKA Cα [9]; primary hippocampal neurons
  effect of agent alone on PKA Cα localization: no effect
[10]
  effect of agent alone on luciferase activity / gene expression: without effect
ε-PKC [1]
  effect on NPA-induced translocation of ε-PKC: blocked
  effect on ethanol-induced translocation of ε-PKC: blocked
δ-PKC [6]
  effect on NPA-induced translocation of δ-PKC: did not affect
  effect on ethanol-induced translocation of δ-PKC: did not affect
[3]; NG108-15 cells, 200 mM ethanol co-incubated with Rp-cAMPS 20 μM
  effect on early (4 h) and late (14 h) phases of ethanol-induced increases in luciferase expression: completely inhibited both the early and late phases
[11]
  effect on the ethanol-induced increase in luciferase activity (GAL4-CREB / GAL4-luciferase): inhibited

## CN(C)CCCn1cc(C2=C(c3c[nH]c4ccccc34)C(=O)NC2=O)c2ccccc21 [GF, Bisindoylmaleimide I]
ε-PKC [4]
  Predominant ε-PKC Localization (ethanol + inhibitor): Perinucleus

## O=S(=O)(NCCNC/C=C/c1ccc(Br)cc1)c1cccc2cnccc12 [H-89]
[3]; [17]
  effect on the increase in luciferase expression after 14 hours of exposure to 200 mM ethanol: inhibit the increase in luciferase expression

## COc1cccc(-c2cc(=O)c3ccccc3o2)c1N [PD98059]
[3]; [17]
  effect on the increase in luciferase expression after 14 hours of exposure to 200 mM ethanol: eliminated the increase in luciferase activity

## CCNC(=O)[C@H]1O[C@@H](n2cnc3c(N)nc(NCCc4ccc(CCC(=O)O)cc4)nc32)[C@H](O)[C@@H]1O [CGS-21680 HCl]
ε-PKC [1]; [12]
  Predominant Localization of ε-PKC (agent alone): Cytoplasm

## O=C(CCCN1CCC2(CC1)C(=O)NCN2c1ccccc1)c1ccc(F)cc1 [spiperone]
PKA Cα [9]; [16]
  effect on NPA-induced PKA Cα translocation: blocks
PKA Cα [9]; primary hippocampal neurons
  effect of agent alone on PKA Cα localization: no effect
[10]
  effect of agent alone on luciferase activity / gene expression: without effect
ε-PKC [1]
  effect on NPA-induced translocation of ε-PKC: blocked
  effect on ethanol-induced translocation of ε-PKC: no effect
ε-PKC [1]; 10 μM spiperone + 50 nM NPA
  Predominant Localization of ε-PKC (antagonist + NPA): Perinucleus
ε-PKC [1]; [18]
  Predominant Localization of ε-PKC (antagonist + ethanol): Cytoplasm
δ-PKC [6]
  effect on NPA-induced translocation of δ-PKC: blocked
  effect on ethanol-induced translocation of δ-PKC: no effect
δ-PKC [6]; 10 μM spiperone + 50 nM NPA
  Predominant Localization of δ-PKC (antagonist + NPA): Golgi
δ-PKC [6]; [18]
  Predominant Localization of δ-PKC (antagonist + ethanol): Perinucleus &
PKA Cα [2]
  effect on NPA-induced translocation of PKA Cα: blocked
  effect on ethanol-induced translocation of PKA Cα: no effect
PKA Cα [2]; 10 μM spiperone + 50 nM NPA
  Predominant Localization of PKA Cα (antagonist + NPA): Golgi
PKA Cα [2]; 10 μM spiperone + 200 mM ethanol
  Predominant Localization of PKA Cα (antagonist + ethanol): Nucleus &

## OC[C@H]1O[C@@H](n2cnc3c(NC4CCCC4)nc(Cl)nc32)[C@H](O)[C@@H]1O [CCPA, 2-chloro-N^6-cyclopentyladenosine]
ε-PKC [1]; [12]
  Predominant Localization of ε-PKC (agent alone): Cytoplasm

## C#CCn1c(=O)c2c(ncn2C)n(C)c1=O [DMPX]
PKA Cα [9]; [16]
  effect on NPA-induced PKA Cα translocation: do not affect
PKA Cα [9]; primary hippocampal neurons
  effect of agent alone on PKA Cα localization: no effect

## CCCn1c(=O)c2[nH]c(C3CCCC3)nc2n(CCC)c1=O [DPCPX]
PKA Cα [9]
  effect on NPA-induced PKA Cα translocation: do not affect
  effect on ethanol-induced PKA Cα translocation: prevents
PKA Cα [9]; primary hippocampal neurons
  effect of agent alone on PKA Cα localization: no effect
